The structures appear in SMILES notation.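 Compound exposure: 48 hours, 5 concentrations, 96-well plates. GI50 = concentration required for 50% inhibition of growth. TGI: total growth inhibition.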

Ten compounds from PubChem BioAssay (NCI) can be followed below.

Some test systems named below: SNB-19 CNS; HCT-116 colon; SF-295 CNS; SK-MEL-5 melanoma; HL-60(TB) leukemia; HOP-92 NSCLC; MCF7 breast; OVCAR-4 ovarian; SF-268 CNS; HOP-62 NSCLC.
What all share (assay): DTP human tumour cell line panel, 48 h

In the case of `CN1C(=O)c2c(ccc3c2OCO3)C2C(O)Cc3cc4c(cc3C21)OCO4` (stereo not given), the TGI in the experiment on SNB-19 CNS was more than 100 µM; in the experiment with HCT-116 colon, more than 100 µM; in the experiment with SF-295 CNS, 4.63 µM; in the experiment on SK-MEL-5 melanoma, more than 100 µM; with HL-60(TB) leukemia, 6.3 µM; in the experiment on HOP-92 NSCLC, more than 100 µM. In addition, the TGI in the experiment on MCF7 breast, in the experiment with OVCAR-4 ovarian and with SF-268 CNS was more than 100 µM in each case.
For `COc1cc2c(/C=N\N=C(N)N)c(Cl)[nH]c2cc1C`, the GI50 with SNB-19 CNS is 12.7 µM; in the experiment with HCT-116 colon it was 10.2 µM; in the experiment on SF-295 CNS it was 8.28 µM; in the experiment on SK-MEL-5 melanoma, 5.08 µM; in the experiment on MCF7 breast, 6.47 µM; in the experiment with SF-268 CNS, 15.2 µM. The TGI with SNB-19 CNS stood at 29.2 µM; in the experiment with HCT-116 colon, 21.9 µM; in the experiment on SF-295 CNS it was 23.1 µM; in the experiment with SK-MEL-5 melanoma, 19 µM; in the experiment with MCF7 breast it was 27.5 µM; in the experiment with SF-268 CNS, 40.7 µM.
For the compound `CC1=NN(C(=O)c2ccccc2O)C(=O)/C1=C/c1ccc([N+](=O)[O-])cc1`, the GI50 with SNB-19 CNS is 0.464 µM; in the experiment on HCT-116 colon, 0.328 µM; in the experiment on SF-295 CNS, 0.379 µM; with SK-MEL-5 melanoma, 2.21 µM; in the experiment on HL-60(TB) leukemia, 1.08 µM; with HOP-92 NSCLC, 0.609 µM. For the same compound, the GI50 is 0.392 µM in the experiment with MCF7 breast, 0.783 µM with OVCAR-4 ovarian and 0.444 µM in the experiment on SF-268 CNS. Further, the TGI was more than 100 µM with SNB-19 CNS; more than 100 µM in the experiment with SF-295 CNS; 51.5 µM in the experiment with SK-MEL-5 melanoma; more than 100 µM in the experiment with HOP-92 NSCLC; more than 100 µM in the experiment with MCF7 breast; more than 100 µM in the experiment on OVCAR-4 ovarian. In the experiment with SF-268 CNS, this compound showed a TGI of more than 100 µM.
Regarding `O=P([O-])(O)OP(=O)([O-])O.[NH-][C@H]1CCCC[C@@H]1[NH-].[OH-].[OH-].[Pt+4]`, the GI50 with HOP-62 NSCLC is 19.3 µM; in the experiment on SNB-19 CNS, 21.7 µM; in the experiment on HCT-116 colon, 37.1 µM; in the experiment with SF-295 CNS, 19.8 µM; with SK-MEL-5 melanoma, 42.3 µM; in the experiment on HOP-92 NSCLC, 22 µM. In addition, the GI50 in the experiment with MCF7 breast is 32.1 µM; in the experiment with OVCAR-4 ovarian, 71.2 µM; in the experiment on SF-268 CNS it was 20.9 µM. Further, the total growth inhibition concentration (TGI) with HOP-62 NSCLC was 35.4 µM; with SNB-19 CNS, 49.7 µM; in the experiment with HCT-116 colon, more than 100 µM; in the experiment with SF-295 CNS, 44.1 µM; in the experiment on SK-MEL-5 melanoma it was more than 100 µM; in the experiment on HOP-92 NSCLC, 60.1 µM. In addition, the TGI in the experiment with MCF7 breast was more than 100 µM; with OVCAR-4 ovarian, more than 100 µM; in the experiment with SF-268 CNS it was 46.8 µM.
Turning to `Nc1ncnc2c1ncn2C1OC(COP(=O)(O)CP(=O)(O)O)C(O)C1O` (stereo not given), the TGI in the experiment on HOP-62 NSCLC, in the experiment with SNB-19 CNS, with HCT-116 colon, in the experiment with SF-295 CNS, in the experiment with SK-MEL-5 melanoma and in the experiment on HL-60(TB) leukemia was more than 100 µM in each case. In addition, the TGI in the experiment on MCF7 breast and with SF-268 CNS was more than 100 µM throughout.
With `O=C(/C=C/c1ccc(B(O)O)cc1)/C=C/c1ccc(B(O)O)cc1`, the GI50 was 10.3 µM in the experiment with HOP-62 NSCLC; 6.09 µM with SNB-19 CNS; 0.343 µM with HCT-116 colon; 2.02 µM with SF-295 CNS; 1.94 µM in the experiment with SK-MEL-5 melanoma; 7.94 µM in the experiment on HOP-92 NSCLC. Further, the GI50 was 0.415 µM in the experiment with MCF7 breast, 11.4 µM in the experiment on OVCAR-4 ovarian and 3.39 µM in the experiment with SF-268 CNS. In addition, the TGI was determined as 22 µM with HOP-62 NSCLC; 21.2 µM with SNB-19 CNS; 1.21 µM in the experiment with HCT-116 colon; 5.66 µM in the experiment with SF-295 CNS; 4.47 µM with SK-MEL-5 melanoma; 22.9 µM in the experiment with HOP-92 NSCLC. Further, the TGI with MCF7 breast was determined as 3.89 µM; in the experiment on OVCAR-4 ovarian, 24 µM; in the experiment on SF-268 CNS, 12.1 µM.
`Cc1ccc(NCCCN2CCN(CCCNc3ccc(C)c4sc5ccccc5c(=O)c34)CC2)c2c(=O)c3ccccc3sc12`: the TGI in the experiment with HOP-62 NSCLC, in the experiment with SNB-19 CNS, in the experiment on HCT-116 colon, in the experiment with SF-295 CNS, in the experiment on SK-MEL-5 melanoma and with HL-60(TB) leukemia was more than 100 µM each time. Also, the TGI in the experiment with MCF7 breast, in the experiment on OVCAR-4 ovarian and in the experiment with SF-268 CNS was more than 100 µM throughout.
For the compound `CCC[CH2][Sn]([CH2]CCC)([O]C(=O)c1c(F)cccc1F)[O]C(=O)c1c(F)cccc1F`, the GI50 in the experiment with HOP-62 NSCLC is 2.22 µM; in the experiment on SNB-19 CNS, 1.29 µM; in the experiment on HCT-116 colon, 1.02 µM; in the experiment on SF-295 CNS, 1.56 µM; in the experiment on SK-MEL-5 melanoma it was 1.24 µM; in the experiment on HL-60(TB) leukemia, 0.378 µM. Moreover, the GI50 in the experiment on HOP-92 NSCLC is 0.44 µM; in the experiment with OVCAR-4 ovarian it was 1.28 µM; in the experiment with SF-268 CNS, 0.565 µM. Moreover, the TGI in the experiment with HOP-62 NSCLC is 3.69 µM; in the experiment with SNB-19 CNS it was 2.56 µM; with HCT-116 colon, 2.25 µM; in the experiment on SF-295 CNS, 2.9 µM; with SK-MEL-5 melanoma, 2.52 µM; in the experiment with HL-60(TB) leukemia, more than 100 µM. The TGI is 1.81 µM in the experiment on HOP-92 NSCLC, 2.55 µM in the experiment on OVCAR-4 ovarian and 1.83 µM in the experiment with SF-268 CNS.
In the case of `O=S(=O)(Nc1ncccn1)c1ccc(N=Nc2ccc(O)c3ncccc23)cc1`, the GI50 is 9.15 µM in the experiment with HOP-62 NSCLC; 6.83 µM in the experiment on SNB-19 CNS; 4.2 µM with HCT-116 colon; 2.89 µM in the experiment on SF-295 CNS; 6.85 µM with SK-MEL-5 melanoma; 6.34 µM in the experiment on HL-60(TB) leukemia. Besides, the GI50 is 5.67 µM in the experiment with MCF7 breast, 4.51 µM in the experiment with OVCAR-4 ovarian and 9.14 µM with SF-268 CNS. Besides, the total growth inhibition concentration (TGI) in the experiment with HOP-62 NSCLC was 76.1 µM; in the experiment on SNB-19 CNS, more than 100 µM; in the experiment on HCT-116 colon, 40.4 µM; with SF-295 CNS, 12 µM; in the experiment on SK-MEL-5 melanoma, 20.7 µM; in the experiment on HL-60(TB) leukemia it was 32.1 µM. The TGI in the experiment with MCF7 breast was 29.4 µM; in the experiment with OVCAR-4 ovarian, 71.7 µM; in the experiment on SF-268 CNS, 87 µM.
Consider `FC(F)(F)C1(Cl)C(c2ccccc2)=C1c1ccccc1`, for which the TGI in the experiment on HOP-62 NSCLC is 32.7 µM; with SNB-19 CNS it was 31.9 µM; in the experiment with HCT-116 colon, 27.4 µM; with SF-295 CNS, 28.1 µM; with SK-MEL-5 melanoma it was 24 µM; in the experiment with HL-60(TB) leukemia, 24.4 µM. The results for the TGI in the experiment with HOP-92 NSCLC, in the experiment on OVCAR-4 ovarian and with SF-268 CNS were 28.4 µM, 26.6 µM and 30.8 µM, respectively.

What is called TGI is the concentration giving total growth inhibition. Read a high TGI as lower sensitivity of the cells. In general, GI50 refers to the concentration at which growth is held to half of that of the control.
